Assay results taken from patent US20070270484A1, “3'-N-Substituted-3-O-Substituted Erythronolide a Derivatives” (priority 2003, published 2007).
In brackets after ≈: the same amount, converted by molar mass.

Legend:
S. pneum ATCC 6303 = assay: MIC, agar incorporation method (NCCLS agar dilution method); assay type: cell-based, streptococcus pneumoniae; settings: 35±2° C.; for Minimum Inhibitory Concentrations, S. pneum ATCC 6303: 18-24 hours, 5% CO2
Protocol: (§1) Drug dilutions and the agar plates are prepared by NCCLS method. Inoculum is prepared by direct colony suspensions in normal saline and adjusted to 0.5 McFarland turbidity and subsequently diluted as per NCCLS guidelines in order to obtain 10^4 CFU/spot. CFU/ml of a few randomly selected cultures is performed. The cultures are replicated on the agar plates using replicator (Denley's multipoint). The plates are incubated at 35±2° C. and in 5% CO2 atmosphere (for respiratory and Haemophilus strains) for 18-24 hours at 35±2° C. Minimum inhibitory concentrations (MIC) are determined after 18-24 hours. Q. C. strains are also included in each run of the study. The cation content of Mueller Hinton agar is checked by performing disk […] of 10 μg gentamicin disk against Pseudomonas aeroginosa ATCC 27853. The zone of inhibition should fall between 16-21 mm. The concentration of drug at which there is complete disappearance of growth spot or formation of less than 10 colonies per spot is considered as MIC.

S. pneum AB 34 (mef) = assay: as above; assay type: cell-based, streptococcus pneumoniae; settings: 18-24 hours, 35±2° C., 5% CO2, mef: efflux pump mef genes
Protocol: as §1

S. pneum ATCC 49619 = assay: as above; assay type: cell-based, streptococcus pneumoniae; settings: 35±2° C.; for Minimum Inhibitory Concentrations, S. pneum ATCC 49619: 18-24 hours, 5% CO2
Protocol: as §1

S. pneum CS 1687 (mef) = assay: as above; assay type: cell-based, streptococcus pneumoniae; settings: 18-24 hours, 35±2° C., 5% CO2, mef: efflux pump mef genes
Protocol: as §1

S. pneum 1251 (mef) = assay: as above; assay type: cell-based, streptococcus pneumoniae; settings: 18-24 hours, 35±2° C., 5% CO2, mef: efflux pump mef genes
Protocol: as §1

S. pneum 1256 (erm) = assay: microbe, parasite or virus in culture; assay type: cell-based, streptococcus pneumoniae; settings: for Minimum Inhibitory Concentrations, S. pneum 1256 (erm): agar dilution, 18-24 hours, 35±2° C., 5% CO2, erm: ribosomal modification (mutation) erm genes
Protocol: as §1

S. pneum 1294 (mef) = assay: microbe, parasite or virus in culture; assay type: cell-based, streptococcus pneumoniae; settings: for Minimum Inhibitory Concentrations, S. pneum 1294 (mef): agar dilution, 18-24 hours, 35±2° C., 5% CO2, mef: efflux pump mef genes
Protocol: as §1

S. pneum AB 14 (erm) = assay: microbe, parasite or virus in culture; assay type: cell-based, streptococcus pneumoniae; settings: for Minimum Inhibitory Concentrations, S. pneum AB 14 (erm): agar dilution, 18-24 hours, 35±2° C., 5% CO2, erm: ribosomal modification (mutation) erm genes
Protocol: as §1

S. pneum 1275 (erm) = assay: microbe, parasite or virus in culture; assay type: cell-based, streptococcus pneumoniae; settings: for Minimum Inhibitory Concentrations, S. pneum 1275 (erm): agar dilution, 18-24 hours, 35±2° C., 5% CO2, erm: ribosomal modification (mutation) erm genes
Protocol: as §1

S. pneum AB 29 (erm) = assay: microbe, parasite or virus in culture; assay type: cell-based, streptococcus pneumoniae; settings: for Minimum Inhibitory Concentrations, S. pneum AB 29 (erm): agar dilution, 18-24 hours, 35±2° C., 5% CO2, erm: ribosomal modification (mutation) erm genes
Protocol: as §1

S. pneum AB 30 (erm) = assay: microbe, parasite or virus in culture; assay type: cell-based, streptococcus pneumoniae; settings: for Minimum Inhibitory Concentrations, S. pneum AB 30 (erm): agar dilution, 18-24 hours, 35±2° C., 5% CO2, erm: ribosomal modification (mutation) erm genes
Protocol: as §1

MoraXella MI = assay: MIC, agar incorporation method (NCCLS agar dilution method); assay type: cell-based; settings: 18-24 hours, 35±2° C.
Protocol: as §1

H. inflenza ATCC 49247 = assay: as above; assay type: cell-based, Haemophilus influenzae; settings: for Minimum Inhibitory Concentrations, H. inflenza ATCC 49247: agar dilution, 18-24 hours, 35±2° C., 5% CO2
Protocol: Minimum inhibitory concentrations (μg/ml) were obtained for representative compounds of the invention, which are given in Table 2.
as §1

Row | Compound | Minimum Inhibitory Concentrations, S. pneum ATCC 6303 (S. pneum ATCC 6303) | Minimum Inhibitory Concentrations, S. pneum AB 34 (mef) (S. pneum AB 34 (mef)) | Minimum Inhibitory Concentrations, S. pneum ATCC 49619 (S. pneum ATCC 49619) | Minimum Inhibitory Concentrations, S. pneum CS 1687 (mef) (S. pneum CS 1687 (mef)) | Minimum Inhibitory Concentrations, S. pneum 1251 (mef) (S. pneum 1251 (mef)) | Minimum Inhibitory Concentrations, S. pneum 1256 (erm) (S. pneum 1256 (erm)) | Minimum Inhibitory Concentrations, S. pneum 1294 (mef) (S. pneum 1294 (mef)) | Minimum Inhibitory Concentrations, S. pneum AB 14 (erm) (S. pneum AB 14 (erm)) | Minimum Inhibitory Concentrations, S. pneum 1275 (erm) (S. pneum 1275 (erm)) | Minimum Inhibitory Concentrations, S. pneum AB 29 (erm) (S. pneum AB 29 (erm)) | Minimum Inhibitory Concentrations, S. pneum AB 30 (erm) (S. pneum AB 30 (erm)) | Minimum Inhibitory Concentrations, MoraXella MI (MoraXella MI) | Minimum Inhibitory Concentrations, H. inflenza ATCC 49247 (H. inflenza ATCC 49247) | other results
1 | 3-O-(2-Fluorophenyl)acetyl-5-O-(3′-N-desmethyl-3′-N-propargyl)desosaminyl-6-O-methyl erythronolide A [Compound No. 21] | 0.5 µg/mL | >16 µg/mL | >16 µg/mL | 0.5 µg/mL | 0.25 µg/mL | >16 µg/mL | 2 µg/mL | >16 µg/mL | >16 µg/mL | >16 µg/mL | >16 µg/mL | 0.25 µg/mL | >16 µg/mL | 
2 | CC[C@H]1OC(=O)[C@H](C)[C@@H](O[C@H]2C[C@@](C)(OC)[C@@H](O)[C@H](C)O2)[C@H](C)[C@@H](O[C@@H]2O[C@H](C)C[C@H](N(C)C)[C@H]2O)[C@](C)(OC)C[C@@H](C)C(=O)[C@H](C)[C@@H](O)[C@]1(C)O [C, Clarithromycin, reference compound] |  |  |  |  |  |  |  |  |  |  |  |  |  | MIC (S. pneum ATCC 6303; Streptococcus pneumoniae, ATCC6303, 18-24 hours, 5% CO2, read-out: Minimum Inhibitory Concentrations, S. pneum ATCC 6303): 0.008 µg/mL (≈ 0.0107 µM); MIC (S. pneum AB 34 (mef); Streptococcus pneumoniae, read-out: Minimum Inhibitory Concentrations, S. pneum AB 34 (mef)): > 16 µg/mL; MIC (S. pneum ATCC 49619; Streptococcus pneumoniae, ATCC49619, 18-24 hours, 5% CO2, read-out: Minimum Inhibitory Concentrations, S. pneum ATCC 49619): 0.008 µg/mL (≈ 0.0107 µM); MIC (S. pneum CS 1687 (mef); Streptococcus pneumoniae, read-out: Minimum Inhibitory Concentrations, S. pneum CS 1687 (mef)): > 16 µg/mL; MIC (S. pneum 1251 (mef); Streptococcus pneumoniae, read-out: Minimum Inhibitory Concentrations, S. pneum 1251 (mef)): 8 µg/mL (≈ 10.7 µM); MIC (S. pneum 1256 (erm); Streptococcus pneumoniae, read-out: Minimum Inhibitory Concentrations, S. pneum 1256 (erm)): > 16 µg/mL; MIC (S. pneum 1294 (mef); Streptococcus pneumoniae, read-out: Minimum Inhibitory Concentrations, S. pneum 1294 (mef)): > 16 µg/mL; MIC (S. pneum AB 14 (erm); Streptococcus pneumoniae, read-out: Minimum Inhibitory Concentrations, S. pneum AB 14 (erm)): > 16 µg/mL; MIC (S. pneum 1275 (erm); Streptococcus pneumoniae, read-out: Minimum Inhibitory Concentrations, S. pneum 1275 (erm)): > 16 µg/mL; MIC (S. pneum AB 29 (erm); Streptococcus pneumoniae, read-out: Minimum Inhibitory Concentrations, S. pneum AB 29 (erm)): > 16 µg/mL; MIC (S. pneum AB 30 (erm); Streptococcus pneumoniae, read-out: Minimum Inhibitory Concentrations, S. pneum AB 30 (erm)): > 16 µg/mL; MIC (MoraXella MI; Moraxella, read-out: Minimum Inhibitory Concentrations, MoraXella MI): 0.125 µg/mL (≈ 0.167 µM); MIC (H. inflenza ATCC 49247; Haemophilus influenzae, ATCC49247, read-out: Minimum Inhibitory Concentrations, H. inflenza ATCC 49247): 8 µg/mL (≈ 10.7 µM)
3 | C#CCN(C)C1CC(C)OC(OC2C(C)C(OC(=O)Cc3ccc(F)cc3)C(C)C(=O)OC(CC)C(C)(O)C(O)C(C)C(=O)C(C)CC2(C)OC)C1O (centres unmarked) [Compound No. 18, 3-O-(4-Fluorophenyl)acetyl-5-O-(3′-N-desmethyl-3′-N-propargyl)desosaminyl-6-O-methyl erythronolide A] | 1 µg/mL | 1 µg/mL | 1 µg/mL | 1 µg/mL | 1 µg/mL | >16 µg/mL | 1 µg/mL | 16 µg/mL | >16 µg/mL | 1 µg/mL | >16 µg/mL | 16 µg/mL | >16 µg/mL | 
4 | 3-O-(2-Pyridyl)acetyl-5-O-(3′-N-desmethyl-3′-N-cyclopropylmethyl)desosaminyl-6-O-methyl erythronolide A [Compound No. 50] | 0.5 µg/mL | >16 µg/mL | 0.5 µg/mL | 1 µg/mL | 0.5 µg/mL | >16 µg/mL | 2 µg/mL | >16 µg/mL | >16 µg/mL | 0.5 µg/mL | >16 µg/mL | 2 µg/mL | >16 µg/mL | 
5 | 3-O-(2-Fluorophenyl)acetyl-5-O-(3′-N-desmethyl-3′-N-allyl)desosaminyl-6-O-methyl erythronolide A [Compound No. 23] | 2 µg/mL | >16 µg/mL | 2 µg/mL | 2 µg/mL | 2 µg/mL | >16 µg/mL | 2 µg/mL | >16 µg/mL | >16 µg/mL | 1 µg/mL | >16 µg/mL | 16 µg/mL | >16 µg/mL | 
